What was measured:
[1] = test system: Puccinia recondita f. Sp. Tritici; test: Fungicidal activity against Puccinia recondita f. sp. tritici / wheat / leaf disc preventative (brown rust); assay type: in vivo; settings: foliar, 200 ppm in the applied formulation, wheat leaf segments cv. Kanzler, inoculated 1 day after application, assessed 7 to 9 days after application, read-out: disease control compared to untreated control leaf disks
Description: Leaf disks or leaf segments of various plant species are cut from plants grown in a greenhouse. The cut leaf disks or segments are placed in multiwell plates (24-well format) onto water agar. The leaf disks are sprayed with a test solution before (preventative) or after (curative) inoculation. Compounds to be tested are prepared as DMSO solutions (max. 10 mg/ml) which are diluted to the appropriate concentration with 0.025% Tween20 just before spraying. The inoculated leaf disks or segments are incubated under defined conditions (temperature, relative humidity, light, etc.) according to the respective test system. A single evaluation of disease level is carried out 3 to 14 days after inoculation, depending on the pathosystem. Percent disease control relative to the untreated check leaf disks or segments is then calculated. Wheat leaf segments cv. Kanzler were placed on agar in multiwell plates (24-well format) and sprayed with the formulated test compound diluted in water. The leaf disks were inoculated with a spore suspension of the fungus 1 day after application. The inoculated leaf segments were incubated at 19° C. and 75% relative humidity (rh) under a light regime of 12 hours light/12 hours darkness in a climate cabinet and the activity of a compound was assessed as percent disease control compared to untreated when an appropriate level of disease damage appears in untreated check leaf segments (7 to 9 days after application). The following compounds at 200 ppm in the applied formulation give at least 80% disease control in this test when compared to untreated control leaf disks under the same conditions, which show extensive disease development.

[2] = test system: Puccinia recondite f. Sp. Tritici; test: Fungicidal activity against Puccinia recondite f. sp. tritici / wheat / leaf disc curative (brown rust); assay type: in vivo; settings: foliar, 200 ppm in the applied formulation, wheat leaf segments cv. Kanzler, applied 1 day after inoculation, assessed 6 to 8 days after application, read-out: disease control compared to untreated control leaf disks
Description: Leaf disks or leaf segments of various plant species are cut from plants grown in a greenhouse. The cut leaf disks or segments are placed in multiwell plates (24-well format) onto water agar. The leaf disks are sprayed with a test solution before (preventative) or after (curative) inoculation. Compounds to be tested are prepared as DMSO solutions (max. 10 mg/ml) which are diluted to the appropriate concentration with 0.025% Tween20 just before spraying. The inoculated leaf disks or segments are incubated under defined conditions (temperature, relative humidity, light, etc.) according to the respective test system. A single evaluation of disease level is carried out 3 to 14 days after inoculation, depending on the pathosystem. Percent disease control relative to the untreated check leaf disks or segments is then calculated.
Wheat leaf segments cv. Kanzler are placed on agar in multiwell plates (24-well format). The leaf segments are then inoculated with a spore suspension of the fungus. Plates were stored in darkness at 19° C. and 75% relative humidity. The formulated test compound diluted in water was applied 1 day after inoculation. The leaf segments were incubated at 19° C. and 75% relative humidity under a light regime of 12 hours light/12 hours darkness in a climate cabinet and the activity of a compound was assessed as percent disease control compared to untreated when an appropriate level of disease damage appears in untreated check leaf segments (6 to 8 days after application).
The following compounds at 200 ppm in the applied formulation give at least 80% disease control in this test when compared to untreated control leaf disks under the same conditions, which show extensive disease development.

[3] = test system: Glomerella lagenarium (Colletotrichum lagenarium); test: Fungicidal activity against Glomerella lagenarium (Colletotrichum lagenarium) liquid culture / cucumber / preventative (anthracnose); assay type: cell-based; settings: Colletotrichum orbiculare; 20 ppm in the applied formulation; liquid culture in PDB, 24° C.; 3 to 4 days after application; read-out: disease control compared to untreated control (inhibition of growth measured photometrically)
Description: Mycelia fragments or conidia suspensions of a fungus prepared either freshly from liquid cultures of the fungus or from cryogenic storage, are directly mixed into nutrient broth. DMSO solutions of the test compound (max. 10 mg/ml) are diluted with 0.025% Tween20 by a factor of 50 and 10 μl of this solution is pipetted into a microtiter plate (96-well format). The nutrient broth containing the fungal spores/mycelia fragments is then added to give an end concentration of the tested compound. The test plates are incubated in the dark at 24° C. and 96% relative humidity. The inhibition of fungal growth is determined photometrically after 2 to 7 days, depending on the pathosystem, and percent antifungal activity relative to the untreated check is calculated.
Conidia of the fungus from cryogenic storage are directly mixed into nutrient broth (PDB—potato dextrose broth). After placing a (DMSO) solution of test compound into a microtiter plate (96-well format), the nutrient broth containing the fungal spores is added. The test plates are incubated at 24° C. and the inhibition of growth is measured photometrically 3 to 4 days after application.
The following compounds at 20 ppm in the applied formulation give at least 80% disease control in this test when compared to untreated control under the same conditions, which show extensive disease development.

| SMILES | melting point [°C] | pest or weed control at 200 ppm [1] [%] | pest or weed control at 200 ppm [2] [%] | inhibition at 20 ppm [3] [%] |
| --- | --- | --- | --- | --- |
| O=C(NCCO)C(=O)c1ccc(-c2noc(C(F)(F)F)n2)cc1 [Compound 1.1, N-(2-hydroxy-ethyl)-2-oxo-2-[4-[5-(trifluoromethyl)-1,2,4-oxadiazol-3-yl]phenyl]acetamide] | 147 to 148 | ≥ 80 | ≥ 80 | ≥ 80 |
| CNC(=O)CNC(=O)C(=O)c1ccc(-c2noc(C(F)(F)F)n2)cc1 [Compound 1.7, N-[2-(methyl-amino)-2-oxo-ethyl]-2-oxo-2-[4-[5-(trifluoromethyl)-1,2,4-oxadiazol-3-yl]phenyl]acetamide] | 167 to 168 | ≥ 80 | ≥ 80 | ≥ 80 |
| O=C(NCCNC(=O)C1CC1)C(=O)c1ccc(-c2noc(C(F)(F)F)n2)cc1 [Compound 1.8, N-[2-[[2-oxo-2-[4-[5-(trifluoromethyl)-1,2,4-oxadiazol-3-yl]phenyl]acet-yl]amino]eth-yl]cyclopropane-carboxamide] | 209 to 210 | ≥ 80 | – | ≥ 80 |
| Cl.NCCNC(=O)C(=O)c1ccc(-c2noc(C(F)(F)F)n2)cc1 [Compound 1.9, 2-[[2-oxo-2-[4-[5-(trifluoromethyl)-1,2,4-oxadiazol-3-yl]phenyl]acet-yl]amino]ethyl-ammonium; chloride] | 213 to 214 | ≥ 80 | ≥ 80 | ≥ 80 |
| CCCCNC(=O)C(=O)c1ccc(-c2noc(C(F)(F)F)n2)cc1 [Compound 1.12, N-butyl-2-oxo-2-[4-[5-(trifluoromethyl)-1,2,4-oxadiazol-3-yl]phenyl]acetamide] | 65.1 to 68.2 | ≥ 80 | ≥ 80 | ≥ 80 |
| CC(C)NC(=O)C(=O)c1ccc(-c2noc(C(F)(F)F)n2)cc1 [Compound 1.13, N-isopropyl-2-oxo-2-[4-[5-(trifluoromethyl)-1,2,4-oxadiazol-3-yl]phenyl]acetamide] | 96 to 97.7 | ≥ 80 | ≥ 80 | ≥ 80 |
| N#CCNC(=O)C(=O)c1ccc(-c2noc(C(F)(F)F)n2)cc1 [Compound 1.14, N-(cyanomethyl)-2-oxo-2-[4-[5-(trifluoromethyl)-1,2,4-oxadiazol-3-yl]phenyl]acetamide] | 143.6 to 147.6 | ≥ 80 | ≥ 80 | ≥ 80 |
| CC(C)CNC(=O)C(=O)c1ccc(-c2noc(C(F)(F)F)n2)cc1 [Compound 1.15, N-isobutyl-2-oxo-2-[4-[5-(trifluoromethyl)-1,2,4-oxadiazol-3-yl]phenyl]acetamide] | 83 to 85.3 | ≥ 80 | ≥ 80 | ≥ 80 |
| O=C(NC1CC1)C(=O)c1ccc(-c2noc(C(F)(F)F)n2)cc1 [Compound 1.16, N-cyclopropyl-2-oxo-2-[4-[5-(trifluoromethyl)-1,2,4-oxadiazol-3-yl]phenyl]acetamide] | 113.1 to 116 | ≥ 80 | ≥ 80 | ≥ 80 |
| CNC(=O)C(=O)c1ccc(-c2noc(C(F)(F)F)n2)cc1 [Compound 1.17, N-methyl-2-oxo-2-[4-[5-(trifluoromethyl)-1,2,4-oxadiazol-3-yl]phenyl]acetamide] | 128.1 to 130.8 | ≥ 80 | ≥ 80 | ≥ 80 |
| NC(=O)C(=O)c1ccc(-c2noc(C(F)(F)F)n2)cc1 [Compound 1.18, 2-oxo-2-[4-[5-(trifluoromethyl)-1,2,4-oxadiazol-3-yl]phenyl]acetamide] | 146.7 to 149.7 | ≥ 80 | ≥ 80 | ≥ 80 |
| CN(C)NC(=O)C(=O)c1ccc(-c2noc(C(F)(F)F)n2)cc1 [Compound 1.19, N′,N′-dimethyl-2-oxo-2-[4-[5-(trifluoromethyl)-1,2,4-oxadiazol-3-yl]phenyl]aceto-hydrazide] | 134 to 138 | ≥ 80 | ≥ 80 | ≥ 80 |
| O=C(C(=O)N1CCCC1)c1ccc(-c2noc(C(F)(F)F)n2)cc1 [Compound 1.20, 1-pyrrolidin-1-yl-2-[4-[5-(trifluoromethyl)-1,2,4-oxadiazol-3-yl]phenyl]ethane-1,2-dione] | 104 to 110 | ≥ 80 | ≥ 80 | ≥ 80 |
| O=C(NCc1ccccc1F)C(=O)c1ccc(-c2noc(C(F)(F)F)n2)cc1 [Compound 1.26, N-[(2-fluorophen-yl)methyl]-2-oxo-2-[4-[5-(trifluoromethyl)-1,2,4-oxadiazol-3-yl]phenyl]acetamide] | 84 to 86 | ≥ 80 | ≥ 80 | ≥ 80 |
| O=C(NC1COC1)C(=O)c1ccc(-c2noc(C(F)(F)F)n2)cc1 [Compound 1.27, N-(oxetan-3-yl)-2-oxo-2-[4-[5-(trifluoromethyl)-1,2,4-oxadiazol-3-yl]phenyl]acetamide] | 131 to 136 | ≥ 80 | ≥ 80 | ≥ 80 |
| CCON(C)C(=O)C(=O)c1ccc(-c2noc(C(F)(F)F)n2)cc1 [Compound 1.32, N-ethoxy-N-methyl-2-oxo-2-[4-[5-(trifluoromethyl)-1,2,4-oxadiazol-3-yl]phenyl]acetamide] | – | ≥ 80 | ≥ 80 | ≥ 80 |
| O=C(C(=O)N1CCOCC1)c1ccc(-c2noc(C(F)(F)F)n2)cc1 [Compound 1.35, 1-morpholino-2-[4-[5-(trifluoromethyl)-1,2,4-oxadiazol-3-yl]phenyl]ethane-1,2-dione] | 140 to 144 | ≥ 80 | ≥ 80 | ≥ 80 |
| COC(=O)CNC(=O)C(=O)c1ccc(-c2noc(C(F)(F)F)n2)cc1 [Compound 1.36, methyl 2-[[2-oxo-2-[4-[5-(trifluoromethyl)-1,2,4-oxadiazol-3-yl]phenyl]acet-yl]amino]acetate] | 89 to 90 | – | ≥ 80 | ≥ 80 |
| COCCNC(=O)C(=O)c1ccc(-c2noc(C(F)(F)F)n2)cc1 [Compound 1.40, N-(2-methoxy-ethyl)-2-oxo-2-[4-[5-(trifluoromethyl)-1,2,4-oxadiazol-3-yl]phenyl]acetamide] | – | ≥ 80 | ≥ 80 | ≥ 80 |

From US10653146B2, “Microbiocidal oxadiazole derivatives” (SYNGENTA PARTICIPATIONS AG, priority 2016, dated 2020)
